Assay results taken from patent US20220113299A1, “METHOD OF DYNAMICS ANALYSIS FOR COMPOUND IN CELL” (Hitachi High-Tech Corporation, priority 2019, published 2022).

Test system: hepatocytes
Assay: kinetic analysis of compound efflux in cultured hepatocytes (Test Sections 1 to 3, fluorescence measurement)
Assay type: in vitro ADME, rat
Conditions: 30 minutes; for ratio of the amount of compound excreted into the bile duct to the totality of compound taken up into the cells (BiRD): (B1-B2)/(C1+C2), EGTA disrupted vs maintained system, 37° C.; for ratio of the amount of compound excreted into the bile duct to the totality of compound taken up into the cells (BiRD) / ratio of the amount of compound excreted via transporter to the amount of compound excreted basolaterally (RexEMTP): pattern 1; for ratio of the amount of compound excreted via transporter to the amount of compound excreted basolaterally (RexEMTP): (B2-B3)/B2, cultured hepatocytes, 37° C. vs 4° C.; for Sup fraction (fraction of the first basolateral efflux), index for tendency to remain or not to remain in the cells: pattern 2: sum of Steps 4, 5 and 6 = 100%, Step 4, 37° C., in %
Protocol: Hepatocytes were prepared by in-situ collagenase perfusion method. The details are as follows. A rat (5-6 week-old) is anesthetized with pentobarbital and undergoes laparotomy, followed by insertion of a catheter into the portal vein and injection of a preperfusion solution (a Ca^2+ and Mg^2+ free Hanks' solution containing glycol ether diaminetetraacetic acid (EGTA)). After checking that blood is sufficiently removed from the liver, the perfusion is stopped. Perfusion is performed with the perfusate being changed to a collagenase solution. In this embodiment, the perfusion operates with a Hanks' solution containing 0.05% collagenase, but the collagenase solution is not limited to this. After checking that the tissue between the cells has been digested by collagenase, the perfusion is stopped. The liver is excised, sliced in a cooled Hanks' solution, and separated into cells by pipetting. Damaged hepatocytes are removed by centrifugation at 500 G for 5 minutes with an isotonic Percoll solution. The viability of the resulting hepatocytes is determined by the trypan blue-exclusion test. Hepatocytes having a viability of 85% or more are used for culture. Here, hepatocytes having a viability of 85% or more are used for culture, but such culture is not necessarily limited to the condition. In addition, the preparation of hepatocytes is not necessarily limited to that by in situ collagenase perfusion method. The hepatocytes to be used are not limited to those derived from a rat, and the strain of rat is not limited. This embodiment employs hepatocytes, but cells are not limited to this.
(3) Cells prepared by a procedure as above are suspended in a medium. The hepatocytes are suspended at a density of 5×10^5 cells/mL in the medium and plated onto a commercially available culture dish coated with collagen. The density upon plating, the medium, and the culture plate 001 are not limited. The culture plate is illustrated in FIG. 7. A 24-well culture plate having 24 culture regions (wells, 002) is here illustrated, but the culture plate is not limited to this, and any of containers in other shapes may be used as long as it can contain predetermined cells. After plating, culture is started under conditions of 5% CO2 and 37° C. using a CO2 incubator. After 18 hours or more, the first medium change is performed. This embodiment employs a FCS-medium, which is a medium resulting from removal of FCS from the medium (10% FCS+) and supplementation with Matrigel, as the medium to be used for culture 18 hours after the plating. However, the medium can be any medium. After this, medium change with the medium (FCS−) is performed every 24 hours. As described later, testing is performed under three different conditions in Step 5 (Test Sections 1, 2, and 3; described in detail in Step 5), three independent culture plates under the same conditions are prepared at this point. In Steps 0 to 4 and Step 5, the same testing operations are performed in all the three test sections.
The culture supernatant of the cells cultured in Step 0 for 4 days is removed, and 400 μL of Hanks' solution is added as a buffer. The cells are incubated at 37° C. for 10 minutes (FIG. 2, Step 1). The type and amount of buffer are not limited.
The buffer is removed, and then 200 μL of […] carboxydichlorofluorescein (CDF; a fluorescent reagent) is fed to the well. The plate is incubated at 37° C. for 30 minutes and then maintained at 4° C. for 5 minutes (FIG. 2, Step 2). The type, concentration, and amount of the reagent are not limited. CDF emits fluorescence and can therefore be easily quantified as a model reagent with a plate reader. The amount of administration, 200 μL, was chosen so that the cells as a whole in the well would be immersed in the reagent. The concentration of CDF may be a concentration conventionally used for a fluorescence assay of cells. This concentration is preferably applied also as an amount of the reagent for the detection with a plate reader. […]

ratio of the amount of compound excreted into the bile duct to the totality of compound taken up into the cells (BiRD) | ratio of the amount of compound excreted via transporter to the amount of compound excreted basolaterally (RexEMTP) | Sup fraction (fraction of the first basolateral efflux), index for tendency to remain or not to remain in the cells | Substance
4.92 | 52.52 | 39.29 | Rhodamine 123
18.58 | 41.08 | 70.82 | carboxydichlorofluorescein [CDF]
